Test results from patent US4885299A, “2-(2,3-dihydro-2-oxo-3-benzofuranyl)acetic acids antihypoxic and nootropic effects having” (ADIR Et Cie, priority 1987, dated 1989).
Counter-ions that a name gives are not always drawn.

What was measured:
[1] = test system: Acute hypoxia in mice; survival of the brain; assay: Acute hypoxia in mice (hypobaric); brain survival time to final respiratory gasp; format: in vivo, Male CD1 mice (Charles River); settings: mice; for change in vivo at 10 mg/kg: 10 mg/kg I.P.; for change in vivo at 30 mg/kg: 30 mg/kg I.P.; for change in vivo at 100 mg/kg / Percentage increase in the survival time: 100 mg/kg I.P.; for change in vivo at 200 mg/kg: 200 mg/kg I.P.; for change in vivo at 300 mg/kg: 300 mg/kg I.P.
Description: (§1) The compounds of the present invention were tested in respect of their capacity to prolong the survival of cerebral tissue during acute hypoxia in mice, or to maintain the level of tissue energy-rich compounds in rats subjected to a fall in the oxygen supply [Pharmacology of Cerebral Ischemia, p. 334-339 (1968) Elsevier Science Publishers B.V., J. Krieglstein ed.]. […] Forsch. Drug. Res. (1986), 36 II No. 9, p. 1314-1320].
The survival of the brain is assessed by measuring the time at which the final respiratory gasp is observed.
The survival time of a treated batch is compared with that of a control batch receiving only the solvent.
The percentage increase in the survival time after the animals are treated with the compounds of the invention is shown in Table II.

[2] = test system: brain energy-rich compounds (ATP, ADP, AMP); assay: Acute hypoxia in rats; protection of tissue energy-rich compounds in brain (ATP, energy content); format: in vivo, Male Fischer 344 rats (Charles River); settings: for antihypoxic effect / protection in words: 300 mg/kg; for % inhibition of the effects of hypoxia, EC (tissue energy content) / % inhibition of the effects of hypoxia, ATP: 3% oxygen for 2 minutes
Description: as §1
Whereas the control rats breath a gaseous mixture containing 21% of oxygen and 79% of nitrogen, the rats subjected to hypoxia breath a mixture of 3% oxygen and 97% nitrogen for 2 minutes.
At the end of the hypoxic period, the animals are rapidly sacrificed by total immersion in liquid nitrogen. The frozen brain is removed and the energy-rich compounds (ATP, ADP, AMP) are extracted and assayed by the luciferin luminescence method.
The tissue energy content (EC) is calculated according to ATKINSON's formula: [formula]

[3] = Mus musculus, ip, 30 minutes before hypoxia, read-out: Percentage increase in the survival time
[4] = 100 mg/kg I.P., listed as pyritinol

Structure (SMILES): COc1cccc(C2CCCN(C(=O)CC3(c4ccccc4)C(=O)Oc4ccc(Cl)cc43)C2)c1 (centres unmarked) [Example 30, 2-(5-Chloro-2,3-dihydro-2-oxo-3-phenyl-3-benzofuranyl)-1-[3-(3-methoxyphenyl)piperidyl]-1-oxoethane]
- change in vivo at 10 mg/kg [1, 3]: 32%
- change in vivo at 30 mg/kg [1, 3]: 36%
- change in vivo at 100 mg/kg [1, 3]: 103%

Structure (SMILES): COc1ccc2c(c1)C(CC(=O)O)(c1ccccc1)C(=O)O2 (centres unmarked) [Example 6, 2-(2,3-Dihydro-5-methoxy-2-oxo-3-phenyl-3-benzofuranyl)acetic acid]
- change in vivo at 100 mg/kg [1, 3]: 41%

Structure (SMILES): NC(=O)CN1CCCC1=O [Piracetam, piracetam, reference compound]
- Percentage increase in the survival time ([1]; 30 minutes before hypoxia): +11%
- change in vivo at 100 mg/kg [1, 3]: 11%
- change in vivo at 1000 mg/kg ([1]; Mus musculus, ip, 1000 mg/kg I.P., 30 minutes before hypoxia, read-out: Percentage increase in the survival time): 25%
- antihypoxic effect / protection in words [2]: only very little protection
- % inhibition of the effects of hypoxia, EC (tissue energy content) ([2]; 300 mg/kg I.P.): 1.6%

Structure (SMILES): Cc1ncc(CSSCc2cnc(C)c(O)c2CO)c(CO)c1O [Pyritinol, pyritinol]
- Percentage increase in the survival time ([1]; 30 minutes before hypoxia): +27%
- significance of the protection (brain survival time) ([1]; 100 mg/kg): significant
- change in vivo at 30 mg/kg [1, 3]: 13%
- change in vivo at 100 mg/kg [1, 3]: 27%
- change in vivo at 200 mg/kg [1, 3]: 77%
- % inhibition of the effects of hypoxia, ATP ([2]; 30 mg/kg I.P.): 11.1%
- % inhibition of the effects of hypoxia, EC (tissue energy content) ([2]; 30 mg/kg I.P.): 16.6%
- antihypoxic effect in words ([2]; 100 mg/kg): only a more modest effect
- % inhibition of the effects of hypoxia, ATP ([2]; 100 mg/kg I.P.): 23.3%
- % inhibition of the effects of hypoxia, EC (tissue energy content) ([2]; 100 mg/kg I.P.): 35.2%
- % inhibition of the effects of hypoxia, ATP [2, 4]: 23%
- % inhibition of the effects of hypoxia, EC (tissue energy content) [2, 4]: 35%
- antihypoxic effect / protection in words [2]: distinct antihypoxic effect
- % inhibition of the effects of hypoxia, ATP ([2]; 300 mg/kg I.P.): 90.4%
- % inhibition of the effects of hypoxia, EC (tissue energy content) ([2]; 300 mg/kg I.P.): 85.4%

Structure (SMILES): O=C(CC1(c2ccccc2)C(=O)Oc2ccc(Cl)cc21)N1CCN(c2cccc(C(F)(F)F)c2)CC1 (centres unmarked) [Example 18, 2-(5-Chloro-2,3-dihydro-2-oxo-3-phenyl-3-benzofuranyl)-1-[4-(3-trifluoromethylphenyl)piperazinyl)-1-oxoethane hydrochloride]
- change in vivo at 10 mg/kg [1, 3]: 41%
- change in vivo at 30 mg/kg [1, 3]: 53%
- change in vivo at 100 mg/kg [1, 3]: 88%
- change in vivo at 300 mg/kg [1, 3]: 103%

Structure (SMILES): O=C(CC1(c2ccccc2)C(=O)Oc2ccc(O)cc21)OCc1ccccc1 (centres unmarked) [Example 7]
- change in vivo at 100 mg/kg [1, 3]: 14%
- change in vivo at 300 mg/kg [1, 3]: 156%

Structure (SMILES): Cc1cccc(N2CCN(C(=O)CC3C(=O)Oc4ccc(Cl)cc43)CC2)c1 (centres unmarked) [Example 26, 2-(5-Chloro-2,3-dihydro-2-oxo-3-benzofuranyl)-1-[4-(3-methylphenyl)piperazinyl]-1-oxoethane hydrochloride]
- change in vivo at 10 mg/kg [1, 3]: 52%
- change in vivo at 30 mg/kg [1, 3]: 53%
- change in vivo at 100 mg/kg [1, 3]: > 130%
- change in vivo at 300 mg/kg [1, 3]: 190%

Structure (SMILES): O=C(CC1(c2ccccc2)C(=O)Oc2ccccc21)N1CCN(Cc2ccc3c(c2)OCO3)CC1 (centres unmarked) [Example 22, 2-(2,3-Dihydro-2-oxo-3-phenyl-3-benzofuranyl)-1-[4-(3,4-methylenedioxybenzyl)piperazinyl]-1-oxoethane hydrochloride]
- Percentage increase in the survival time ([1]; 30 minutes before hypoxia, listed as Ex. 22, hydrochloride): +126%
- change in vivo at 10 mg/kg [1, 3]: 11%
- change in vivo at 30 mg/kg [1, 3]: 42%
- change in vivo at 100 mg/kg [1, 3]: 126%

Structure (SMILES): O=C(O)CC1(c2ccccc2)C(=O)Oc2ccccc21 (centres unmarked) [Example 3, 2-(2,3-Dihydro-2-oxo-3-phenyl-3-benzofuranyl) acetic acid]
- change in vivo at 100 mg/kg [1, 3]: 29%

Structure (SMILES): O=C(O)[C@@H]1CCCN1C(=O)CC1(c2ccccc2)C(=O)Oc2ccc(Cl)cc21 (some centres unmarked) [Example 13, N-[2-(5-chloro-2,3-dihydro-2-oxo-3-phenyl-3-benzofuranyl)acetyl]proline]
- change in vivo at 100 mg/kg [1, 3]: 8%

Structure (SMILES): O=C(CC1(c2ccccc2)C(=O)Oc2ccc(Cl)cc21)N1CCN(Cc2ccccc2)CC1 (centres unmarked) [Example 17, 2-(5-Chloro-2,3-dihydro-2-oxo-3-phenyl-3-benzofuranyl)-1-(4-benzylpiperazinyl)-1-oxoethane]
- change in vivo at 30 mg/kg [1, 3]: 40%
- change in vivo at 100 mg/kg [1, 3]: 66%

Structure (SMILES): O=C(CC1(c2ccccc2)C(=O)Oc2ccc(Cl)cc21)N1CCN(CCO)CC1 (centres unmarked) [Example 15, 2-(5-Chloro-2,3-dihydro-2-oxo-3-phenyl-3-benzofuranyl)-1-[4-(2-hydroxyethyl)piperazinyl]-1-oxoethane hydrochloride]
- change in vivo at 10 mg/kg [1, 3]: 34%
- change in vivo at 30 mg/kg [1, 3]: 41%
- change in vivo at 100 mg/kg [1, 3]: > 130%
- change in vivo at 200 mg/kg [1, 3]: 203%

Structure (SMILES): CCN(CC)C(=O)CC1(c2ccccc2)C(=O)Oc2ccc(Cl)cc21 (centres unmarked) [Example 10, N,N-Diethyl-2-(5-chloro-2,3-dihydro-2-oxo-3-phenyl-3-benzofuranyl)acetamide]
- change in vivo at 100 mg/kg [1, 3]: 97%

Structure (SMILES): O=C(CC1(c2ccccc2)C(=O)Oc2ccc(Cl)cc21)N1CCOCC1 (centres unmarked) [Example 14, 2-(5-Chloro-2,3-dihydro-2-oxo-3-phenyl-3-benzofuranyl)-1-morpholino-1-oxoethane]
- change in vivo at 100 mg/kg [1, 3]: 88%

Structure (SMILES): CCN(CC)CCN(C)C(=O)CC1(c2ccccc2)C(=O)Oc2ccc(Cl)cc21 (centres unmarked) [Example 12, N-Methyl-N-diethylaminoethyl-2-(5-chloro-2,3-dihydro-2-oxo-3-phenyl-3-benzofuranyl)acetamide hydrochloride]
- change in vivo at 3 mg/kg ([1]; Mus musculus, ip, 3 mg/kg I.P., 30 minutes before hypoxia, read-out: Percentage increase in the survival time): 32%
- change in vivo at 10 mg/kg [1, 3]: 41%
- change in vivo at 30 mg/kg [1, 3]: 84%
- change in vivo at 100 mg/kg [1, 3]: > 180%

Structure (SMILES): O=C(CC1(c2ccccc2)C(=O)Oc2ccc(Cl)cc21)N1CCN(c2cc(C(F)(F)F)ccn2)CC1 (centres unmarked) [Example 27, 2-(5-Chloro-2,3-dihydro-2-oxo-3-phenyl-3-benzofuranyl)-1-[4-(4-trifluoromethyl-2-pyridyl)piperazinyl]-1-oxoethane]
- change in vivo at 10 mg/kg [1, 3]: 36%
- change in vivo at 30 mg/kg [1, 3]: 59%
- change in vivo at 100 mg/kg [1, 3]: 76%

Structure (SMILES): CN(CC(=O)O)C(=O)CC1(c2ccccc2)C(=O)Oc2ccccc21 (centres unmarked) [Example 21, N-Methyl-N-[2-(2,3-dihydro-2-oxo-3-phenyl-3-benzofuranyl)acetyl]glycine]
- change in vivo at 100 mg/kg [1, 3]: 14%

Structure (SMILES): O=C(O)CC1(c2ccccc2)C(=O)Oc2ccc(F)cc21 (centres unmarked) [Example 2, 2-(2,3-Dihydro-5-fluoro-2-oxo-3-phenyl-3-benzofuranyl)acetic acid]
- change in vivo at 100 mg/kg [1, 3]: 38%

Structure (SMILES): CN(C(=O)CC1(c2ccccc2)C(=O)Oc2ccc(Cl)cc21)[C@@H](Cc1ccccc1)C(=O)O (some centres unmarked) [Example 28, N-[2-(5-Chloro-2,3-dihydro-2-oxo-3-phenyl-3-benzofuranyl)acetyl]-N-methylphenylalanine]
- change in vivo at 100 mg/kg [1, 3]: 90%

Structure (SMILES): CCOC(=O)CC1(c2ccccc2)C(=O)Oc2ccc(Cl)cc21 (centres unmarked) [Example 8, 2-(5-Chloro-2,3-dihydro-2-oxo-3-phenyl-3-benzofuranyl)acetic acid ethyl ester]
- change in vivo at 100 mg/kg [1, 3]: 52%

Structure (SMILES): Cc1cccc(CN2CCN(C(=O)CC3C(=O)Oc4ccccc43)CC2)c1 (centres unmarked) [Example 25, 2-(2,3-Dihydro-2-oxo-3-benzofuranyl)-1-[4-(3-methylbenzyl)piperazinyl]-1-oxoethane hydrochloride]
- % inhibition of the effects of hypoxia, ATP ([2]; 100 mg/kg I.P.): 50.5%
- % inhibition of the effects of hypoxia, EC (tissue energy content) ([2]; 100 mg/kg I.P.): 52.6%

Structure (SMILES): CC(C)C[C@@H](C(=O)O)N(C)C(=O)CC1(c2ccccc2)C(=O)Oc2ccc(Cl)cc21 (some centres unmarked) [Example 11, N-Methyl-N-[2-(5-chloro-2,3-dihydro-2-oxo-3-phenyl-3-benzofuranyl)acetyl]leucine]
- change in vivo at 100 mg/kg [1, 3]: 159%

Structure (SMILES): O=C(O)CC1(c2ccccc2)C(=O)Oc2ccc(O)cc21 (centres unmarked) [Example 5, 2-(2,3-Dihydro-5-hydroxy-2-oxo-3-phenyl-3-benzofuranyl)acetic acid]
- change in vivo at 100 mg/kg [1, 3]: 69%

Structure (SMILES): CCN1CCCC1CN(C)C(=O)CC1(c2ccccc2)C(=O)Oc2ccc(Cl)cc21 (centres unmarked) [Example 32, 2-(5-Chloro-2-oxo-3-phenyl-3-benzofuranyl)-1-[(1-ethylpyrrolidinyl)methyl]methylamino-1-oxoethanehydrochloride]
- change in vivo at 30 mg/kg [1, 3]: 26%

Structure (SMILES): O=C(O)CN1CCN(C(=O)CC2(c3ccccc3)C(=O)Oc3ccc(Cl)cc32)CC1 (centres unmarked) [Example 29, 2-(5-Chloro-2,3-dihydro-2-oxo-3-phenyl-3-benzofuranyl)-1-(4-carboxymethylpiperazinyl)-1-oxoethane hydrochloride]
- change in vivo at 30 mg/kg [1, 3]: 32%
- change in vivo at 100 mg/kg [1, 3]: 66%

Structure (SMILES): Cc1cccc(N2CCN(C(=O)CC3(c4ccccc4)C(=O)Oc4ccc(Cl)cc43)CC2)c1 (centres unmarked) [Example 19, 2-(5-Chloro-2,3-dihydro-2-oxo-3-phenyl-3-benzofuranyl)-1-[4-(3-methylphenyl)piperazinyl]-1oxoethane hydrochloride]
- change in vivo at 100 mg/kg [1, 3]: 76%

Structure (SMILES): O=C(O)CC1(c2ccc(Cl)cc2)C(=O)Oc2ccccc21 (centres unmarked) [Example 4, 2-[3-(4-Chlorophenyl)-2,3-dihydro-2-oxo-3-benzofuranyl)acetic acid]
- change in vivo at 100 mg/kg [1, 3]: 17%
